According to publication PMC9000887, “Novel 1,2,3-Triazole-Coumarin Hybrid Glycosides and Their Tetrazolyl Analogues: Design, Anticancer Evaluation and Molecular Docking Targeting EGFR, VEGFR-2 and CDK-2” (Molecules, 2022):
Read-outs that look alike come from different tables or passages of the source.

What was measured:
[1] = tested on: human melanoma (A-375) cancer cell line; test: MTT cytotoxicity assay, A-375
Procedure: (§2) After 48 h incubation, the medium was aspirated and then 40 μL MTT salt (2.5 mg/mL) was added for a further 4 h. […] Doxorubicin was used as the positive control and 0.5% DMSO was used as the negative control.

[2] = tested on: human prostate (PC-3) cancer cell line; test: MTT cytotoxicity assay, PC-3
Procedure: as §2

[3] = tested on: human pancreatic (Paca-2) cancer cell line; test: MTT cytotoxicity assay, Paca-2
Procedure: as §2

[4] = tested on: human colon (Caco-2) cancer cell line; settings: Caco-2, 100 µM
Procedure: as §2

[5] = tested on: human melanoma (Mel-501) cancer cell line; test: MTT cytotoxicity assay, Mel-501; settings: for IC50: read-out: IC50 (Mean ± SEM) Mel-501
Procedure: as §2

Cytochrome-c = Cytochrome-c ELISA in Paca-2; format: cell-based, human; settings: Paca-2, 24 h at IC50 (10.7 μM); control 0.123 ng/mL
Procedure: Cytochrome-c specific antibodies were precoated onto 96-well plates. Cytochrome-c were analysed by enzyme-linked immunosorbent assays (ELISAs) using commercial kits (ab119521; Abcam, Cambridge, MA, USA). The optimal dilutions were determined and ELISAs were performed according to the manufacturer’s instructions.

EGFR = EGFR (Homo sapiens, UniProt P00533); test: In vitro kinase inhibitory assessment, EGFR (Kinase-Glo luminescence); format: biochemical; settings: mean of three values; read-out: IC50 (Mean ± SEM) EGFR
Sequence of EGFR (P00533 25-1210): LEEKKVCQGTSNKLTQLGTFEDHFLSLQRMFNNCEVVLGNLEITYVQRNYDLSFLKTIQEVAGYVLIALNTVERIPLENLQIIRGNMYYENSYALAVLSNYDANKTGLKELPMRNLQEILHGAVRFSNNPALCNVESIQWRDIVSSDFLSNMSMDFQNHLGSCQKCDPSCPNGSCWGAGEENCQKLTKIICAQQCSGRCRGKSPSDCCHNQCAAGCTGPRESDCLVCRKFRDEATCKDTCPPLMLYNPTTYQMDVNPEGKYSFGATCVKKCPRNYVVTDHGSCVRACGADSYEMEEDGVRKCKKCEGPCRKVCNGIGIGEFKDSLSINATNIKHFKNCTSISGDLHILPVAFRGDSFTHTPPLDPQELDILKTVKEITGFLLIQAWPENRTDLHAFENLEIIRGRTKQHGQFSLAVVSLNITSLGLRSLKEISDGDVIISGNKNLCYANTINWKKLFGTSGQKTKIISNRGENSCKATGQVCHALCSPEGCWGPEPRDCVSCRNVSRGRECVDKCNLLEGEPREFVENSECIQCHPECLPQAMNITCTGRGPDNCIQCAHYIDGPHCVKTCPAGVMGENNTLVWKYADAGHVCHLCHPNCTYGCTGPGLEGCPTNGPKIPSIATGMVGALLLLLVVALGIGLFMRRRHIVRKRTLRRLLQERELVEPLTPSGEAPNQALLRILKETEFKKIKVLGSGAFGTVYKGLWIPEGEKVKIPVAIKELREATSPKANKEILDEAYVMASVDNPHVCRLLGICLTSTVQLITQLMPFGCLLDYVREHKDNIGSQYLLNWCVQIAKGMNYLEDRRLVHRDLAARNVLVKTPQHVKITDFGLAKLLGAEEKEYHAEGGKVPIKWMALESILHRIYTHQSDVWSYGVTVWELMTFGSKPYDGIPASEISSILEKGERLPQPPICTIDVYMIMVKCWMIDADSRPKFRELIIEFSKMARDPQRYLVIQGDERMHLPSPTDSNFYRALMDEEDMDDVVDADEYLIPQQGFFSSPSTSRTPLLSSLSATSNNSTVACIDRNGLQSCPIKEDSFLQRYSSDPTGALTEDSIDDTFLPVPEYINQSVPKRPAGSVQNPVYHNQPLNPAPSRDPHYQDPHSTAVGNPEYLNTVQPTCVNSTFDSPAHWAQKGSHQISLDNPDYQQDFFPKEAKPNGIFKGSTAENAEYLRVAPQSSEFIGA

PD-1 = PD-1 protein level ELISA in Paca-2; format: cell-based, human; settings: Paca-2, 24 h at IC50 (10.7 μM); untreated control 275.6 Pg/mL
Procedure: Samples or standards were added to the wells Human PD-1 eliza kit (ab252360 Human PD-1, Abcam, Cambridge, MA, USA), followed by the antibody mix. After incubation, the wells were washed to remove unbound material. TMB Development Solution was added and during incubation was catalysed by HRP, generating blue coloration. This reaction was then stopped by the addition of Stop Solution, completing any colour change from blue to yellow. The optical density (OD) was measured at a wavelength of 450 ± 2 nm.

Paca-2 cells [6] = test: Cell cycle analysis by flow cytometry (PI staining); format: cell-based, human; settings: Paca-2, 24 h at IC50 (10.7 μM)
Procedure: (§1) Apoptosis investigation and cell cycle analysis were elucidated by flow cytometry. Paca-2 cells were seeded at 8 × 10^4 and incubated at 37 °C in 5% CO2 overnight. […] For cell cycle analysis, cell pellets were fixed with 70% ethanol on ice for 15 min and collected again. The pellets were incubated with propidium iodide (PI) staining solution at room temperature for 1 h and analysed by a Gallios flow cytometer (Beckman Coulter, Brea, CA, USA). Apoptosis detection was carried out by FITC AnnexinV/PI commercial kit (Becton Dickenson, Franklin Lakes, NJ, USA) following the manufacturer’s protocol. The samples were analysed by fluorescence-activated cell sorting (FACS) with a Gallios flow cytometer (Beckman Coulter, Brea, CA, USA) within 1 h after staining. Data were analysed using Kaluza v 1.2 (Beckman Coulter, Brea, CA, USA).

CDK-2/cyclin A2 = CDK-2/cyclin A2 (Homo sapiens, UniProt P24941); test: In vitro kinase inhibitory assessment, CDK-2/cyclin A2 (ELISA); format: biochemical; settings: mean of three values; read-out: IC50 (Mean ± SEM) CDK-2/Cyclin A2
Procedure: Assay of CDK-2/cyclin A2 was achieved through ELISA using an affinity tag labelled capture antibody. Adding the samples and the standard to the wells was carried out after the addition of the antibody mix. After the incubation period, the unrestrained substance was discarded and the wells were washed. The added TMB (3,3′,5,5′-tetramethylbenzidine) substrate was prompted by Horseradish peroxidase (HRP) and blue coloration appeared. This reaction was stopped with the addition of stop solution to complete the change in colour from blue to yellow. The created signals were equivalent to the quantity of bound analyte and Robonik P2000 ELISA reader was used to record the intensity at a certain wavelength (450 nm). The concentrations of the screened compounds were calculated through the plotted curve.

VEGFR-2 = VEGFR-2 (Homo sapiens, UniProt P35968); test: biochemical
Sequence of VEGFR-2 (P35968 20-1356): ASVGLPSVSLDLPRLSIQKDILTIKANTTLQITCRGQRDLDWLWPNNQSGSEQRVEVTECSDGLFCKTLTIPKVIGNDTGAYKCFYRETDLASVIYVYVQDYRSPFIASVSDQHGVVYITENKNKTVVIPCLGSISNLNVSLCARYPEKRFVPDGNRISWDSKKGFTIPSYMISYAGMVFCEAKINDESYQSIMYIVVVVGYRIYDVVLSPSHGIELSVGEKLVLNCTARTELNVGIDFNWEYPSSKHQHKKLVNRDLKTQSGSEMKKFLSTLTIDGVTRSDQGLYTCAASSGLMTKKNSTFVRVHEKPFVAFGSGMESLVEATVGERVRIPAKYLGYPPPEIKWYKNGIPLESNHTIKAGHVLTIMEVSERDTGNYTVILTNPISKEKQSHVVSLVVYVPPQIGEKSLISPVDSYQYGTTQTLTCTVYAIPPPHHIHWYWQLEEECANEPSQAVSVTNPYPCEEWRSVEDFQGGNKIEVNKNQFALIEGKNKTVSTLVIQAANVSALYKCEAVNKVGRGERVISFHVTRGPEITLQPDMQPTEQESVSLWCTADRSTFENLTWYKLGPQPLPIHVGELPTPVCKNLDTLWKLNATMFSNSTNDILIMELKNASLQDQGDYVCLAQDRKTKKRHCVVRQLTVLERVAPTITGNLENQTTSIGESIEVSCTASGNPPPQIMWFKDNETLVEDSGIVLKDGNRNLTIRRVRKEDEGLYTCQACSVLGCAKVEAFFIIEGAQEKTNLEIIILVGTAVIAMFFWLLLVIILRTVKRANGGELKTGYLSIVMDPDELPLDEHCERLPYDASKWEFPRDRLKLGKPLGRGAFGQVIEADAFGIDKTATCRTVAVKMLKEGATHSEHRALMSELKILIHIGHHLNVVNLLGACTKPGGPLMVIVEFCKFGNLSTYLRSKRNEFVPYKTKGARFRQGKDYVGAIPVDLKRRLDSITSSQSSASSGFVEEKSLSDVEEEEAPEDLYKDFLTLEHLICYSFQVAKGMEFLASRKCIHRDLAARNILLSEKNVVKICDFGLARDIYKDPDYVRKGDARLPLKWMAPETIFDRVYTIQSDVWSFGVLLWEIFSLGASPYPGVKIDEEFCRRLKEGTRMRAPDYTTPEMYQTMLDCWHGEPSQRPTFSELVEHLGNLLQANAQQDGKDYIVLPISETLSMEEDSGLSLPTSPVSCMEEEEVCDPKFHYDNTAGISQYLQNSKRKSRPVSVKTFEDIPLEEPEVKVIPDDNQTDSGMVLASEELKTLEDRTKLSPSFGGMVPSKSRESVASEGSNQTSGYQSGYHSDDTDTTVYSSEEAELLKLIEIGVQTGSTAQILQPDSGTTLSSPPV
Procedure: The cells were harvested, and the homogenates were prepared in saline using a tight pestle homogenizer until complete cell disruption. The kit used a double-antibody sandwich enzyme-linked immunosorbent assay (ELISA) to determine the level of human VEGFR-2 in samples. A monoclonal antibody for VEGFR-2 was pre-coated onto 96-well plates. The test samples were added to the wells and a biotinylated detection polyclonal antibody from goat specific for VEGFR-2 was added, subsequently followed by washing with PBS buffer. Avidin–Biotin–Peroxidase complex was added, and the unbound conjugates were washed away with PBS buffer. HRP substrate TMB was used to visualize HRP enzymatic reaction. TMB was catalysed by HRP to produce a blue colour product that changed into yellow after the addition of acidic stop solution. The density of yellow colour is proportional to the human VEGFR-2 amount of the sample captured in the plate. The chroma of colour and the concentration of the human VEGFR-2 of the samples were positively correlated and the optical density was determined at 450 nm. The level of human VEGFR-2 in samples was calculated (pg/mL) as duplicate determinations from the standard curve. The % inhibition was calculated in comparison to control untreated cells.

Paca-2 cells [7] = test: Apoptosis detection, FITC Annexin V/PI flow cytometry; format: cell-based, human; settings: Paca-2, 24 h at IC50 (10.7 μM); DMSO control 0.28%
Procedure: as §1

Caspase-3 = Caspase-3 protein level ELISA in Paca-2; format: cell-based, human; settings: Paca-2, 24 h at IC50 (10.7 μM)
Text: The precoated micro-ELISA plate with an antibody specific to Caspase-3 was applied using the Human Caspase-3 ELISA Kit from Invitrogen INC. Catalog # KHO1091 (96 tests) (542 Flynn Road, Camarillo, CA, USA) according to the manufacturer’s instructions.

Caspase-7 = Caspase-7 protein level ELISA in Paca-2; format: cell-based, human; settings: Paca-2, 24 h at IC50 (10.7 μM)
Procedure: The micro-ELISA plate provided in this kit was pre-coated with a Caspase-7-specific antibody. A biotinylated Caspase-7 antibody and Avidin–horseradish peroxidase (HRP) conjugate was added. The excess components were removed. The substrate solution was added. Wells containing Caspase-7, biotinylated detection antibody, and Avidin-HRP conjugate appeared blue in colour. The colour turned yellow following the addition of sulphuric acid solution. The optical density (OD) was measured at a wavelength of 450 ± 2 nm.

[8] = tested on: human colon (Caco-2) cancer cell line; test: MTT cytotoxicity assay, Caco-2
Procedure: as §2

## 4-Phenyl-7-((1-(2,3,4-tri-O-acetyl-β-D-xylopyranosyl)-2H-tetrazol-5-yl)methoxy)-2H-chromen-2-one [Compound 6]
[1]; A-375, at 100 µM, MTT
  % Inhibition A-375: 45.8%
[2]; PC-3, at 100 µM, MTT
  % Inhibition PC-3: 9.1%
[3]; Paca-2, at 100 µM, MTT
  % Inhibition Paca-2: 72.1%
[3]; read-out: IC50 (Mean ± SEM) Paca-2, Paca-2, MTT, 100 to 0.78 μM, three independent determinations
  IC50: 60 ± 1.4 µM
[4]
  % Inhibition Caco-2: -
[5]; Mel-501, at 100 µM, MTT
  % Inhibition Mel-501: 71%
[5]; Mel-501, MTT, three independent determinations
  IC50: 80.4 ± 2.1 µM

## O=c1cc(-c2ccccc2)c2ccc(OCc3nnn(CC(O)CO)n3)cc2o1 (centres unmarked) [Compound 10, 7-((2-(2,3-Dihydroxypropyl)-2H-tetrazol-5-yl)methoxy)-4-phenyl-2H-chromen-2-one]
Cytochrome-c
  cytochrome-c release into the cytosol of treated cells: 0.395 ng/mL
EGFR
  IC50: 0.09 ± 0.21 µM
PD-1
  PD-1 level in treated cells: 91.4 pg/mL
[1]; Homo sapiens, A-375, read-out: % Inhibition A-375
  inhibition at 100 µM: 98.2%
[1]; Homo sapiens, A-375, read-out: IC50 (Mean ± SEM) A-375
  IC50: 10.9 ± 0.1 µM
Paca-2 cells [6]
  increase of percentage of the cells at S phase compared to the control: 1.3 folds
  increase of pre-G1 phase cells percentage compared to the control: 15.7 folds
CDK-2/cyclin A2
  IC50: 0.19 ± 0.05 µM
VEGFR-2
  IC50: 0.86 ± 0.25 µM
Paca-2 cells [7]
  late/secondary cellular apoptosis (PI / Annexin V-FITC, upper right quadrant): 15.55%
Caspase-3; versus control
  upregulation of caspase-3 protein level: 2.8 fold
Caspase-3; control 95.04 Pg/mL
  caspase-3 protein level in treated cells: 266.8 pg/mL
Caspase-7; versus control
  elevation of caspase-7 protein level: 4.3 fold
Caspase-7; control 0.555 ng/mL
  caspase-7 protein level in treated cells: 2.363 ng/mL
[8]; Caco-2, at 100 µM, MTT, (-) No activity detected
  % Inhibition Caco-2: 99.6%
[8]; read-out: IC50 (Mean ± SEM) Caco-2, Caco-2, MTT, three independent determinations
  IC50: 31.9 ± 0.7 µM
[2]; Homo sapiens, read-out: % Inhibition PC-3
  inhibition at 100 µM: 99.2%
[2]; Homo sapiens, read-out: IC50 (Mean ± SEM) PC-3
  IC50: 25.4 ± 0.5 µM
[3]; Homo sapiens, PaCa-2, read-out: % Inhibition Paca-2
  inhibition at 100 µM: 99.9%
[3]; Homo sapiens, PaCa-2, read-out: IC50 (Mean ± SEM) Paca-2
  IC50: 10.7 ± 0.4 µM
[5]; Homo sapiens, read-out: % Inhibition Mel-501
  inhibition at 100 µM: 95.8%
[5]; Homo sapiens
  IC50: 8.8 ± 0.2 µM
